Test results published in patent US20250304623A1, “PEPTIDES FOR INTRACELLULAR DELIVERY” (UNIVERSIDADE DE SANTIAGO DE COMPOSTELA, priority 2022, published 2025).
*: point of attachment. NHNH2 = NN*

Tests used:
Assay type in all cases: cell-based
Hek293 cells [1] = experiment: EGFP mRNA delivery, robotic library screening, Hek293
Experimental: Cells were seeded in a 96 well plate the day before the experiment at a concentration of 50,000 cell/mL (100 μL/w) in DMEM+10% FBS+1% Gln-Abt. For robotic library screening, the delivery of EGFP-mRNA (from TriLink, fully substituted with 5-methoxyuridine, capped and polyadenylated; TriLink, CleanCap® EGFP mRNA (5moU), ref. L-7201) in six different cell lines was performed. Amphiphilic molecule stock solutions were prepared in DMSO as described above and diluted in DMEM to afford a range of concentrations. The solutions of EGFP-mRNA/amphiphilic molecule complexes were freshly prepared prior to the transfection experiments. 35 μL of the corresponding amphiphile were added to 10 μL of a solution of EGFP-mRNA at 10 ng/μL in DMEM. The mixture was shaken for 30 min at room temperature before the addition to the cells. The cell medium was aspirated, and cells were washed with PBS twice. Cells were covered with 39 μL of DMEM and 11 μL of the complex's solution were added to the cells and incubated for 4 h (final concentration of peptide=2.5, 5 and 10 μM; final concentration of EGFP-mRNA=25 ng/well). After the incubation, the medium was replaced by 100 μL of fresh DMEM supplemented with 10% FBS. The total EGFP fluorescence was quantified after 72 h in a well plate reader. Amphiphile transfection efficiency was compared and normalized to Lipofectamine® MessengerMax efficiency (value of 1 in Tables 1-5 and 7; double underlined numbers). All experiments were done in triplicate.
Tables 1-7: RLuc (pDNA) or EGFP (mRNA) expression levels were normalized to Lipofectamine reagents (value=1) and expressed as fold-times signal increase. In the case of siRNA, the siRNA treated cells fluorescence was compared with siMOCK control fluorescence, while Cas9-RNP mediated knockout was measured against the fluorescence of untreated cells. In both siRNA and Cas9-RNP, values are expressed as % fluorescence reduction. Amphiphile concentration was 5 μM in all cases. All experiments were performed in triplicate.
Tables 14-19 show the mean (triplicates) fluorescence intensity measured after the transfection of EGFP mRNA by different amphiphiles at different concentrations in a variety of cell lines. Background fluorescence values, accounted by untreated control cells, were subtracted for processing.

Hek293 cells [2] = experiment: RLuc pDNA delivery, robotic library screening, Hek293
[3] = test system: HCT116 cells expressing EGFP; experiment: Cas9-RNP delivery against EGFP (gene editing, plate reader), HCT116
Experimental: To generate an EGFP expressing HeLa cell line, HeLa cells were transfected with EGFP pDNA (pEGFP-C1, Clontech) and stable transfectants were selected with 400 μg/mL of G-418 (Millipore). Green clones were selected by epifluorescence microscopy and tested for EGFP expression stability through several passages. […] All other EGFP-expressing cell lines were obtained in a similar way from parent non-EGFP-expressing cell lines.
Cells expressing EGFP were seeded in a 96 well plate the day before the experiment at a concentration of 50,000 cell/mL (100 μL/w) in DMEM+10% FBS+1% Gln-Abt. For robotic library screening, the delivery of Cas9-RNP against EGFP (RNP designed to knock-out the gene encoding for the enhanced green fluorescent protein (EGFP)) was performed. For RNP assembly, 9.2 μL of crRNA and 9.2 μL of tracrRNA were mixed in 211.6 μL of Nuclease-Free Duplex Buffer (IDT), incubated for 5 min at 95° C. and slowly cooled at rt (see I. Lostalé-Seijo, et al. Peptide/Cas9 nanostructures for ribonucleoprotein cell membrane transport and gene edition, Chem. Sci., 2017). Cas9 protein was dissolved in DMEM at a final concentration of 4 μM and equal volumes of the RNA complex and Cas9 were mixed and incubated for 5 min at rt. 75 μL of the corresponding amphiphile concentrations were added to 5 μL of RNP at 2 μM. The mixture was shaken for 30 min at room temperature before the addition to the cells. The cell medium was aspirated, and cells were washed twice with PBS. Cells were covered with 30 μL of DMEM and 20 μL of the RNP/amphiphile complexes were added to the cells (final peptide concentrations=2.5, 5 and 10 μM; final Cas9-RNP concentration=50 nM) and incubated for 4 h. After the incubation, the medium was replaced by 100 μL of fresh DMEM supplemented with 10% FBS. The total EGFP fluorescence was quantified after 72 h in a plate reader (FIG. 2, Table 1 (right) and Table 6). All experiments were done in triplicate. […]
Tables 26-31 show the mean (triplicates) percentage of gene editing, accounted by GFP fluorescence intensity decrease (% of reduction), measured after the transfection of Cas9-RNP by different amphiphiles at different concentrations in a variety of cell lines. Background values, accounted by untreated control cells, were subtracted for processing.

Substance | mean fluorescence intensity (EGFP mRNA) (Hek293 cells [1]; Myristoleyl, 2.5 μM) | mean fluorescence intensity (EGFP mRNA) (Hek293 cells [1]; Oleyl, 2.5 μM) | mean fluorescence intensity (EGFP mRNA) (Hek293 cells [1]; Oleyl, 5 μM) | mean fluorescence intensity (EGFP mRNA) (Hek293 cells [1]; Oleyl, 10 μM) | mean fluorescence intensity (EGFP mRNA) (Hek293 cells [1]; Petroselinyl, 2.5 μM) | mean fluorescence intensity (EGFP mRNA) (Hek293 cells [1]; Petroselinyl, 5 μM) | mean fluorescence intensity (EGFP mRNA) (Hek293 cells [1]; Petroselinyl, 10 μM) | mean luminescent intensity (RLuc pDNA) (Hek293 cells [2]; Palmitoleyl, 5 μM) | mean luminescent intensity (RLuc pDNA) (Hek293 cells [2]; Palmitoleyl, 10 μM) | mean luminescent intensity (RLuc pDNA) (Hek293 cells [2]; Palmitoleyl, 15 μM) | mean luminescent intensity (RLuc pDNA) (Hek293 cells [2]; Petroselinyl, 5 μM) | mean luminescent intensity (RLuc pDNA) (Hek293 cells [2]; Petroselinyl, 10 μM) | percentage of gene editing, GFP fluorescence intensity decrease (% of reduction) ([3]; Dodecanal, 5 μM) | percentage of gene editing, GFP fluorescence intensity decrease (% of reduction) ([3]; Myristoleyl, 15 μM) | percentage of gene editing, GFP fluorescence intensity decrease (% of reduction) ([3]; Palmitoleyl, 5 μM) | percentage of gene editing, GFP fluorescence intensity decrease (% of reduction) ([3]; Palmitoleyl, 15 μM) | percentage of gene editing, GFP fluorescence intensity decrease (% of reduction) ([3]; Petroselinyl, 5 μM) | mean luminescent intensity (RLuc pDNA) (Hek293 cells [2]; Dodecanal, 10 μM) | mean luminescent intensity (RLuc pDNA) (Hek293 cells [2]; Dodecanal, 15 μM) | percentage of gene editing, GFP fluorescence intensity decrease (% of reduction) ([3]; Dodecanal, 15 μM) | also measured
Ac-RHLK*RHK*RRLK*RH-NH2 (Ac-RHLKRHKRRLKRH-NH2; not fully specified (residues 4, 7, 11); printed as Ac-RHLK*RHK*RRLK*RH-NH2; also: linker on K* not given here) [13(3His)] | 2039 | 2611 | 735 | 1303 | 3629 | 2394 | 2964 | 46216 RLU | 51837 RLU | 10351 RLU | 330418 RLU | 145597 RLU | −33% | 0% | −9% | 14% | 26% | – | – | – | mean fluorescence intensity (EGFP mRNA) (Hek293 cells [1]; Dodecanal, 5 μM): 1878; mean fluorescence intensity (EGFP mRNA) (Hek293 cells [1]; Dodecanal, 10 μM): 1687; mean fluorescence intensity (EGFP mRNA) (Hek293 cells [1]; Myristoleyl, 5 μM): 1952; mean fluorescence intensity (EGFP mRNA) (Hek293 cells [1]; Myristoleyl, 10 μM): 3636; mean luminescent intensity (RLuc pDNA) (Hek293 cells [2]; Oleyl, 5 μM): 294438 RLU; mean luminescent intensity (RLuc pDNA) (Hek293 cells [2]; Oleyl, 10 μM): 191190 RLU; mean luminescent intensity (RLuc pDNA) (Hek293 cells [2]; Oleyl, 15 μM): 87323 RLU; mean luminescent intensity (RLuc pDNA) (Hek293 cells [2]; Petroselinyl, 15 μM): 36468 RLU
Ac-RHLK*RLK*RRLK*RL-NH2 (Ac-RHLKRLKRRLKRL-NH2; not fully specified (residues 4, 7, 11); printed as Ac-RHLK*RLK*RRLK*RL-NH2; also: linker on K* not given here) [13(Arg-His)] | 2326 | 5005 | 1571 | 1231 | 1436 | 638 | 372 | 280799 RLU | 124471 RLU | 19968 RLU | 258944 RLU | 217264 RLU | 4% | 29% | 30% | 9% | – | 309302 RLU | 78888 RLU | 16% | mean fluorescence intensity (EGFP mRNA) (Hek293 cells [1]; Palmitoleyl, 10 μM): 777; mean luminescent intensity (RLuc pDNA) (Hek293 cells [2]; Dodecanal, 5 μM): 265059 RLU; mean luminescent intensity (RLuc pDNA) (Hek293 cells [2]; Petroselinyl, 15 μM): 101890 RLU; percentage of gene editing, GFP fluorescence intensity decrease (% of reduction) ([3]; Dodecanal, 10 μM): 5%; percentage of gene editing, GFP fluorescence intensity decrease (% of reduction) ([3]; Myristoleyl, 5 μM): −7%; percentage of gene editing, GFP fluorescence intensity decrease (% of reduction) ([3]; Oleyl, 5 μM): 5%; percentage of gene editing, GFP fluorescence intensity decrease (% of reduction) ([3]; Palmitoleyl, 10 μM): 22%; percentage of gene editing, GFP fluorescence intensity decrease (% of reduction) ([3]; Petroselinyl, 10 μM): 6%
Ac-RK*LRK*K*L-NH2 (Ac-RK(NHNH2)LRK(NHNH2)K(NHNH2)L-NH2; not fully specified; printed as Ac-RK*LRK*K*L-NH2; also: K*2,K*5,K*6: native or modified lysine (ε-amide to a linker)) [Peptide 7.3] | 11081 | 3452 | 1414 | 805 | 9200 | 8731 | 476 | 2088 RLU | – | – | 7479 RLU | 2932 RLU | – | 4% | −12% | 35% | 39% | 11481 RLU | 13690 RLU | −11% | mean fluorescence intensity (EGFP mRNA) (Hek293 cells [1]; Dodecanal, 2.5 μM): 9114; mean fluorescence intensity (EGFP mRNA) (Hek293 cells [1]; Dodecanal, 5 μM): 17096; mean fluorescence intensity (EGFP mRNA) (Hek293 cells [1]; Dodecanal, 10 μM): 2056; mean fluorescence intensity (EGFP mRNA) (Hek293 cells [1]; Myristoleyl, 5 μM): 2907; mean fluorescence intensity (EGFP mRNA) (Hek293 cells [1]; Myristoleyl, 10 μM): 982; mean fluorescence intensity (EGFP mRNA) (Hek293 cells [1]; Palmitoleyl, 2.5 μM): 4120; mean luminescent intensity (RLuc pDNA) (Hek293 cells [2]; Myristoleyl, 5 μM): 94318 RLU; mean luminescent intensity (RLuc pDNA) (Hek293 cells [2]; Myristoleyl, 10 μM): 179823 RLU; percentage of gene editing, GFP fluorescence intensity decrease (% of reduction) ([3]; Oleyl, 5 μM): −7%; percentage of gene editing, GFP fluorescence intensity decrease (% of reduction) ([3]; Oleyl, 10 μM): 4%; percentage of gene editing, GFP fluorescence intensity decrease (% of reduction) ([3]; Palmitoleyl, 10 μM): 17%; percentage of gene editing, GFP fluorescence intensity decrease (% of reduction) ([3]; Petroselinyl, 10 μM): 34%
Ac-RK*LRRLLRK*-NH2 (Ac-RK(NHNH2)LRRLLRK(NHNH2)-NH2; not fully specified; printed as Ac-RK*LRRLLRK*-NH2; also: K*2,K*9: native or modified lysine (ε-amide to a linker)) [Peptide 9.2] | – | – | – | – | – | – | – | – | – | – | – | – | −34% | – | – | – | – | 32272 RLU | 18149 RLU | −22% | mean luminescent intensity (RLuc pDNA) (Hek293 cells [2]; Oleyl, 15 μM): 435 RLU; percentage of gene editing, GFP fluorescence intensity decrease (% of reduction) ([3]; Dodecanal, 10 μM): −15%
Ac-RRLK*RLLRRLK*RLK*RRL-NH2 (Ac-RRLK(NHNH2)RLLRRLK(NHNH2)RLK(NHNH2)RRL-NH2; not fully specified; printed as Ac-RRLK*RLLRRLK*RLK*RRL-NH2; also: K*4,K*11,K*14: native or modified lysine (ε-amide to a linker)) [Peptide 17.3] | – | – | – | – | – | – | – | 10403 RLU | 1319 RLU | −644 RLU | – | – | −2% | 26% | – | – | −4% | 12692 RLU | 3248 RLU | 22% | mean luminescent intensity (RLuc pDNA) (Hek293 cells [2]; Myristoleyl, 5 μM): 158771 RLU; mean luminescent intensity (RLuc pDNA) (Hek293 cells [2]; Myristoleyl, 10 μM): 4717 RLU; mean luminescent intensity (RLuc pDNA) (Hek293 cells [2]; Myristoleyl, 15 μM): −110 RLU
